US20260176320A1, “MODULATORS OF G-PROTEIN COUPLED RECEPTORS” (priority 2018, published 2026)
Read-outs that look alike come from different tables or passages of the source. Square brackets hold non-standard residues; d marks the D form. Peptide text beside a SMILES is read from it. * marks the point of attachment. X4 = CC(C)(C(=O)NCCN1C(=O)CSC1=O)C(=O)*; Aib = CC(C)(N)C(=O)O

Tests used:
Assay type in all cases: cell-based
[1] = biological target: T1, GLP-1R (Homo sapiens, UniProt P43220); experiment: PathHunter β-arrestin assay
How it was run: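 Agonist concentration–response (22 points, 2-fold steps, duplicates) was run on cells plated the previous day in BSA-supplemented (0.2%) medium. Stimulation lasted 90 min at 37 °C, followed by a 3 h dark incubation with detection reagent at room temperature and a luminescence read.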

[2] = biological target: T2, GIP-R (Homo sapiens, UniProt P48546); experiment: HitHunter cAMP assay (GIP-R); conditions: cAMP; for Emax: read-out: (Emax) GIP-R
T2 sequence (P48546 22-466): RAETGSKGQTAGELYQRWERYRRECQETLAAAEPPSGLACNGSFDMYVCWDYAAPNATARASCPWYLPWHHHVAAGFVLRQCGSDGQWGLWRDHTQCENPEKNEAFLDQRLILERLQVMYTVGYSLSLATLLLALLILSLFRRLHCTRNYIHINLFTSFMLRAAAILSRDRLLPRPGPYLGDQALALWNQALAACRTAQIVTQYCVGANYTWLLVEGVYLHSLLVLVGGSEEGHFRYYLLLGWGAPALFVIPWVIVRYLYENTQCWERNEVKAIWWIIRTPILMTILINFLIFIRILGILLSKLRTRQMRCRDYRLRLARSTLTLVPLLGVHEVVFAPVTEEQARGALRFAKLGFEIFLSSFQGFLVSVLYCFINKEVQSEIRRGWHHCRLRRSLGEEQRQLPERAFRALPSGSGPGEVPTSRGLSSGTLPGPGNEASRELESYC
How it was run: (§1)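 Cells were resuspended in HBSS plus HEPES, IBMX (625 μM) and BSA, then dispensed with antibody at 10,000 per well. Agonists followed as 22-point twofold series, 30 min at room temperature. Antibody reagent and detection steps ran 1 h and overnight in the dark before luminescence.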

[3] = biological target: T1, GLP-1R; experiment: HitHunter cAMP assay (GLP-1R); conditions: cAMP; for Emax: read-out: (Emax) GLP-1R
How it was run: as §1

[4] = read-out: EC50 GIP-R/nM, Table 3
[5] = read-out: EC50 GIP-R/nM, Table 3A
[6] = PathHunter β-arrestin assay, read-out: β-arrestin activity EC50
[7] = Table 3, read-out: EC50 GIP-R/nM
[8] = Table 3A, read-out: EC50 GIP-R/nM
[9] = Table 3, read-out: EC50 GLP-1R/nM
[10] = Table 3A, read-out: EC50 GLP-1R/nM

T1 sequence (P43220 24-463): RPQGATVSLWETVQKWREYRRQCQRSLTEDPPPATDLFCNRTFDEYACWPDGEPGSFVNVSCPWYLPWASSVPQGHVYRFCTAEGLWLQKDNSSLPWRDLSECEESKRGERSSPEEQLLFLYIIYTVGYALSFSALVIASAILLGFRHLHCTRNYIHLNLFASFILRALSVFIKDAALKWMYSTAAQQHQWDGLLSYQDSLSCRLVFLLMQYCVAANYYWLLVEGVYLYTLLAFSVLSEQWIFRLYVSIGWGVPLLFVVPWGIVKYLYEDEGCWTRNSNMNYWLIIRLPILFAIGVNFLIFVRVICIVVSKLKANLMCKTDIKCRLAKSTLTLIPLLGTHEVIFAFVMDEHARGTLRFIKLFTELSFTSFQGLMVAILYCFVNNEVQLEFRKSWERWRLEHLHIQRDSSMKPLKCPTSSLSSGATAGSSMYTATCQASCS

SMILES | EC50 [1] | EC50 ([2]; EC50 GIP-R/nM, Table 3) | EC50 ([2]; EC50 GIP-R/nM, Table 3A) | Emax ([2]; Table 3) | Emax ([2]; Table 3A) | EC50 ([3]; EC50 GLP-1R/nM, Table 3) | EC50 ([3]; EC50 GLP-1R/nM, Table 3A) | Emax ([3]; Table 3) | Emax ([3]; Table 3A) | EC50 [2, 4] | EC50 [2, 5] | EC50 ([3]; read-out: EC50 GLP-1R/nM, Table 3) | EC50 ([3]; read-out: EC50 GLP-1R/nM, Table 3A) | EC50 [1, 6] | EC50 [2, 7] | EC50 [2, 8] | EC50 [3, 9] | EC50 [3, 10]
CCCCCCCCCCCCCCCC(=O)N[C@@H](CCC(=O)NCCCC[C@H](NC(=O)[C@H](CO)NC(=O)[C@@H]1CCCN1C(=O)[C@@H]1CCCN1C(=O)[C@@H]1CCCN1C(=O)[C@H](C)NC(=O)CNC(=O)[C@H](CO)NC(=O)[C@H](CO)NC(=O)[C@@H]1CCCN1C(=O)CNC(=O)CNC(=O)[C@H](C)NC(=O)[C@H](CC(C)C)NC(=O)[C@H](CC(C)C)NC(=O)[C@H](Cc1c[nH]c2ccccc12)NC(=O)[C@H](CC(N)=O)NC(=O)[C@@H](NC(=O)[C@H](Cc1ccccc1)NC(=O)[C@H](CCC(=O)O)NC(=O)C(C)(C)NC(=O)[C@H](C)NC(=O)[C@H](C)NC(=O)[C@H](CCC(N)=O)NC(=O)[C@H](CCCCN)NC(=O)[C@H](CC(=O)O)NC(=O)[C@H](CC(C)C)NC(=O)[C@H](Cc1ccc(O)cc1)NC(=O)[C@@H](NC(=O)[C@H](CO)NC(=O)[C@H](Cc1ccc(O)cc1)NC(=O)[C@H](CC(=O)O)NC(=O)[C@H](CO)NC(=O)[C@@H](NC(=O)[C@H](Cc1ccccc1)NC(=O)[C@@H](NC(=O)CNC(=O)[C@H](CCC(=O)O)NC(=O)CSCC(=O)NCCN1C(=O)CCCC1=O)[C@@H](C)O)[C@@H](C)O)[C@@H](C)CC)C(C)C)C(N)=O)C(=O)O [Compound 123] | > 1000 nM | 0.1 to 1 nM | 0.1 to 1 nM | 111% | 111% | 1 to 10 nM | 1 to 10 nM | 104% | 104% | – | – | – | – | – | – | – | – | –
CC[C@H](C)[C@H](NC(=O)[C@H](CO)NC(=O)[C@H](Cc1ccc(O)cc1)NC(=O)[C@H](CC(=O)O)NC(=O)[C@H](CO)NC(=O)[C@@H](NC(=O)[C@H](Cc1ccccc1)NC(=O)[C@@H](NC(=O)CNC(=O)[C@H](CCC(=O)O)NC(=O)CC(=O)NCCCN1C(=O)c2ccc(C)cc2C1=O)[C@@H](C)O)[C@@H](C)O)C(=O)N[C@@H](Cc1ccc(O)cc1)C(=O)N[C@@H](CC(C)C)C(=O)N[C@@H](CC(=O)O)C(=O)N[C@@H](CCCCN)C(=O)N[C@@H](CCC(N)=O)C(=O)N[C@@H](C)C(=O)N[C@@H](C)C(=O)NC(C)(C)C(=O)N[C@@H](CCC(=O)O)C(=O)N[C@@H](Cc1ccccc1)C(=O)N[C@H](C(=O)N[C@@H](CC(N)=O)C(=O)N[C@@H](Cc1c[nH]c2ccccc12)C(=O)N[C@@H](CC(C)C)C(=O)N[C@@H](CC(C)C)C(=O)N[C@@H](C)C(=O)NCC(=O)NCC(=O)N1CCC[C@H]1C(=O)N[C@@H](CO)C(=O)N[C@@H](CO)C(=O)NCC(=O)N[C@@H](C)C(=O)N1CCC[C@H]1C(=O)N1CCC[C@H]1C(=O)N1CCC[C@H]1C(=O)N[C@@H](CO)C(=O)N[C@@H](CCCCN)C(N)=O)C(C)C [Compound 128] | > 1000 nM | – | – | 68% | 68% | 1 to 10 nM | 1 to 10 nM | 99% | 99% | 1 to 100 nM | 1 to 100 nM | – | – | – | – | – | – | –
CC[C@H](C)[C@H](NC(=O)[C@H](CO)NC(=O)[C@H](Cc1ccc(O)cc1)NC(=O)[C@H](CC(=O)O)NC(=O)[C@H](CO)NC(=O)[C@@H](NC(=O)[C@H](Cc1ccccc1)NC(=O)[C@@H](NC(=O)CNC(=O)[C@H](CCC(=O)O)NC(=O)C(C)(C)C(=O)NCCCN1C(=O)c2ccc(C)cc2C1=O)[C@@H](C)O)[C@@H](C)O)C(=O)N[C@@H](Cc1ccc(O)cc1)C(=O)N[C@@H](CC(C)C)C(=O)N[C@@H](CC(=O)O)C(=O)N[C@@H](CCCCN)C(=O)N[C@@H](CCC(N)=O)C(=O)N[C@@H](C)C(=O)N[C@@H](C)C(=O)NC(C)(C)C(=O)N[C@@H](CCC(=O)O)C(=O)N[C@@H](Cc1ccccc1)C(=O)N[C@H](C(=O)N[C@@H](CC(N)=O)C(=O)N[C@@H](Cc1c[nH]c2ccccc12)C(=O)N[C@@H](CC(C)C)C(=O)N[C@@H](CC(C)C)C(=O)N[C@@H](C)C(=O)NCC(=O)NCC(=O)N1CCC[C@H]1C(=O)N[C@@H](CO)C(=O)N[C@@H](CO)C(=O)NCC(=O)N[C@@H](C)C(=O)N1CCC[C@H]1C(=O)N1CCC[C@H]1C(=O)N1CCC[C@H]1C(=O)N[C@@H](CO)C(=O)N[C@@H](CCCCN)C(N)=O)C(C)C [Compound 129] | > 1000 nM | – | – | 102 to 109% | 102 to 109% | – | – | 91 to 95% | 91 to 95% | 0.1 to 10 nM | 0.1 to 10 nM | 1 to 100 nM | 1 to 100 nM | – | – | – | – | –
CC[C@H](C)[C@H](NC(=O)[C@H](CO)NC(=O)[C@H](Cc1ccc(O)cc1)NC(=O)[C@H](CC(=O)O)NC(=O)[C@H](CO)NC(=O)[C@@H](NC(=O)[C@H](Cc1ccccc1)NC(=O)[C@@H](NC(=O)CNC(=O)[C@H](CCC(=O)O)NC(=O)C(C)(C)NC(=O)CCN1C(=O)CSC1=O)[C@@H](C)O)[C@@H](C)O)C(=O)N[C@@H](Cc1ccc(O)cc1)C(=O)N[C@@H](CC(C)C)C(=O)N[C@@H](CC(=O)O)C(=O)N[C@@H](CCCCN)C(=O)N[C@@H](CCC(N)=O)C(=O)N[C@@H](C)C(=O)N[C@@H](C)C(=O)NC(C)(C)C(=O)N[C@@H](CCC(=O)O)C(=O)N[C@@H](Cc1ccccc1)C(=O)N[C@H](C(=O)N[C@@H](CC(N)=O)C(=O)N[C@@H](Cc1c[nH]c2ccccc12)C(=O)N[C@@H](CC(C)C)C(=O)N[C@@H](CC(C)C)C(=O)N[C@@H](C)C(=O)NCC(=O)NCC(=O)N1CCC[C@H]1C(=O)N[C@@H](CO)C(=O)N[C@@H](CO)C(=O)NCC(=O)N[C@@H](C)C(=O)N1CCC[C@H]1C(=O)N1CCC[C@H]1C(=O)N1CCC[C@H]1C(=O)N[C@@H](CO)C(=O)N[C@@H](CCCCN)C(N)=O)C(C)C [Compound 130] | – | – | – | 64% | 64% | – | – | 114% | 114% | – | – | – | – | > 1000 nM | 1 to 10 nM | 1 to 10 nM | 0.1 to 1 nM | 0.1 to 1 nM
CC[C@H](C)[C@H](NC(=O)[C@H](CO)NC(=O)[C@H](Cc1ccc(O)cc1)NC(=O)[C@H](CC(=O)O)NC(=O)[C@H](CO)NC(=O)[C@@H](NC(=O)[C@H](Cc1ccccc1)NC(=O)[C@@H](NC(=O)CNC(=O)[C@H](CCC(=O)O)NC(=O)C(C)(C)C(=O)NCCN1C(=O)CSC1=O)[C@@H](C)O)[C@@H](C)O)C(=O)N[C@@H](Cc1ccc(O)cc1)C(=O)N[C@@H](CC(C)C)C(=O)N[C@@H](CC(=O)O)C(=O)N[C@@H](CCCCN)C(=O)N[C@@H](CCC(N)=O)C(=O)N[C@@H](C)C(=O)N[C@H](C(=O)NC(C)(C)C(=O)N[C@@H](CCC(=O)O)C(=O)N[C@@H](Cc1ccccc1)C(=O)N[C@H](C(=O)N[C@@H](CC(N)=O)C(=O)N[C@@H](Cc1c[nH]c2ccccc12)C(=O)N[C@@H](CC(C)C)C(=O)N[C@@H](CC(C)C)C(=O)N[C@@H](C)C(=O)NCC(=O)NCC(=O)N1CCC[C@H]1C(=O)N[C@@H](CO)C(=O)N[C@@H](CO)C(=O)NCC(=O)N[C@@H](C)C(=O)N1CCC[C@H]1C(=O)N1CCC[C@H]1C(=O)N1CCC[C@H]1C(=O)N[C@@H](CO)C(=O)N[C@@H](CCCCN)C(N)=O)[C@@H](C)CC)C(C)C [Compound 132] (X4-EGTFTSDYSIYLDKQAV[Aib]EFINWLLAGGPSSGAPPPSK-NH2) | – | – | – | 61 to 64% | 61 to 64% | – | – | 103 to 114% | 103 to 114% | – | – | – | – | 10 to 1000 nM | 1 to 10 nM | 1 to 10 nM | < 0.1 nM | < 0.1 nM
